Data as given in paper PMC3340383, “Synthesis and Evaluation of a Series of 2-Substituted-5-Thiopropylpiperazine (Piperidine)-1,3,4-Oxadiazoles Derivatives as Atypical Antipsychotics” (PLoS ONE, 2012).

What was measured:
[1] = target: T1, serotonin 5-HT1A receptor (Rattus norvegicus, UniProt P19327); assay: 5-HT1A binding assay ([3H]8-OH-DPAT, rat brain cortex); settings: [3H]8-OH-DPAT, rat brain cortex; mean of three experiments; >10000 marked b: Ki not calculated, inhibition at 10 µM too low; read-out: Ki±SEM, 5HT1A
T1 construct: Rat cerebral cortex was homogenized in 20 volumes of ice-cold Tris-HCl buffer; from tissue; host or cells: rat brain (cerebral) cortex
T1 sequence (P19327 1-422): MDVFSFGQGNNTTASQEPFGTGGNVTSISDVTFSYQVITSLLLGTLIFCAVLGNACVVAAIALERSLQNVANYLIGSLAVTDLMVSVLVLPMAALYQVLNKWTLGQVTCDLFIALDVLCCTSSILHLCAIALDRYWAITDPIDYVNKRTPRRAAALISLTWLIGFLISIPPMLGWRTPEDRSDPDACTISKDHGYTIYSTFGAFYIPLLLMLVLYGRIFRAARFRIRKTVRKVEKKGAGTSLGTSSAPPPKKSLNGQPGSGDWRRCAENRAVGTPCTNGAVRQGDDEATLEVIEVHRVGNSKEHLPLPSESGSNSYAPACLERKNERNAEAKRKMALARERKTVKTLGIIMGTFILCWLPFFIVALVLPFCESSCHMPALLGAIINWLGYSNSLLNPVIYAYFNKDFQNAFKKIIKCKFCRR
Method: (§1) All the new compounds were dissolved in 5% DMSO. The following specific radioligands and tissue sources were used: (a) serotonin 5-HT1A receptor, [^3H]8-OH-DPAT, rat brain cortex; (b) serotonin 5-HT2A receptor, [^3H]ketanserin, rat brain cortex; (c) serotonin 5-HT2C receptor, [^3H]mesulergine, rat brain cortex; (d) dopamine D2 receptor, [^3H]spiperone, rat striatum; (e) dopamine D3 receptor, [^3H]spiperone, rat olfactory tubercle (f) histamine H1 receptor, [^3H] pyrilamine, guinea pig cerebellum.
(§2) Total binding was determined in the absence of no-specific binding and compounds. Specific binding was determined in the presence of compounds. Non-specific binding was determined as the difference between total and specific binding.
(§3) Percentage of inhibition (%) = (total binding − specific binding)×100%/(total binding − nonspecific binding).
(§4) Ki values were calculated based on the Cheng and Prussoff equation: Ki = IC50/(1+C/Kd) where C represents the concentration of the hot ligand used and Kd its receptor dissociation constant were calculated for each labeled ligand. Mean Ki values and SEM were reported for at least three independent experiments.
Rat cerebral cortex was homogenized in 20 volumes of ice-cold Tris-HCl buffer (50 mM, pH 7.7) using an ULTRA TURAX homogeniser, and was then centrifuged at 32000 g for 10 min. […] The final pellet was resuspended in Tris-HCl buffer containing 10 µM Pargyline, 4 mM CaCl2 and 0.1% ascorbic acid.
Total binding each assay tube was added 900 µL of the tissue suspension, 50 µL of 0.5 nM [^3H]8-OH-DPAT (187.4 Ci/mmol, Perkin Elmer Life Sciences, Boston, MA, USA), 50 µL Tris-HCl buffer containing 10 µM Pargyline, 4 mM CaCl2 and 0.1% ascorbic acid.
Non-specific binding each assay tube was added 900 µL of the tissue suspension, 50 µL of 0.5 nM [^3H]8-OH-DPAT, 50 µL of 10 µM serotonin.
Specific binding each assay tube was added 900 µL of the tissue suspension, 50 µL of 0.5 nM [^3H]8-OH-DPAT, 50 µL of new compounds or reference drug.
(§5) The incubation was followed by a rapid vacuum filtration through Whatman GF/B glass filters, and the filtrates were washed twice with 5mL cold buffer and transferred to scintillation vials. Scintillation fluid (3.0 mL) was added and the radioactivity bound was measured using a Beckman LS 6500 liquid scintillation counter.

mice = assay: Acute toxicity study; format: in vivo; settings: oral, survival after 24 h, highest dose 2000 mg/kg
Method: The number of surviving animals was recorded after 24 h of drug administration, and the percent mortality in each group was calculated.

dopamine D2 receptor = target: T2, dopamine D2 receptor (Rattus norvegicus, UniProt P61169); assay: D2 dopaminergic binding assay ([3H]spiperone, rat striatum); settings: [3H]spiperone, rat striatum; mean of three experiments; >10000 marked b: Ki not calculated, inhibition at 10 µM too low; read-out: Ki±SEM, D2
T2 construct: Rat striatum was homogenized in 20 volumes of ice-cold 50 mM Tris-HCl buffer; from tissue; host or cells: rat striatum
Method: as §1, §2, §3, §4
Rat striatum was homogenized in 20 volumes of ice-cold 50 mM Tris-HCl buffer (pH 7.7) using an ULTRA TURAX homogeniser, and centrifuged twice for 10 min at 48,000 g with resuspension of the pellet in fresh buffer. The final pellet was resuspended in 50 mM ice-cold Tris-HCl containing 120 mM NaCl, 5 mM KCl, 2 mM CaCl2, 1 mM MgCl2, 0.1% ascorbic acid and 5 µM pargyline.
Total binding each assay tube was added 900 µL of the tissue suspension, 50 µL of 0.5 nM [^3H]spiperone (16.2 Ci/mmol; Perkin Elmer Life Sciences, Boston, MA, USA), 50 µL Tris-HCl buffer containing 120 mM NaCl, 5 mM KCl, 2 mM CaCl2, 1 mM MgCl2, 0.1% ascorbic acid and 5 µM pargyline.
Non-specific binding each assay tube was added 900 µL of the tissue suspension, 50 µL of 0.5 nM [^3H]spiperone, 50 µL of 10 µM (+)-butaclamol.
Specific binding each assay tube was added 900 µL of the tissue suspension, 50 µL of 0.5 nM [^3H]spiperone, 50 µL of new compounds or reference drug.
as §5, with “5 mL” for “5mL”

[2] = Pharmacokinetics study in rat; format: in vivo; settings: rats
Method: The HPLC conditions were as follows: column, Shim-pack ODS 5.0 µm×150 mm×2.0 mm I.D (SHIMADZU, Japanese); mobile phase, 0.0167% HCOOH (TEDIA Company, USA)/acetonitrile (Merck Company, Germany)50/50; flow rate, 0.2 mL/min; column temperature, 40°C.
For routine compound 22 screening rats (n = 6/group) were dosed via the lateral tail vein at the indicated dose for intravenous administration (5 mg/kg, 100% saline) or via oral gavage (20 mg/kg, suspension in 0.5% methylcellulose). At 30 min, 1 h, 2 h, 3 h, 4 h, 5 h, 6 h, 7 h and 24 h after administration, serial blood samples were collected from the lateral tail vein into heparinized collection tubes (approximately 0.25 mL). The plasma was separated by centrifugation, and the sample was prepared for analysis HPLC/MS by protein precipitation with acetonitrile. The plasma samples were analyzed for drug and internal standard via HPLC-MS/MS protocol.

T2 sequence (P61169 whole entry): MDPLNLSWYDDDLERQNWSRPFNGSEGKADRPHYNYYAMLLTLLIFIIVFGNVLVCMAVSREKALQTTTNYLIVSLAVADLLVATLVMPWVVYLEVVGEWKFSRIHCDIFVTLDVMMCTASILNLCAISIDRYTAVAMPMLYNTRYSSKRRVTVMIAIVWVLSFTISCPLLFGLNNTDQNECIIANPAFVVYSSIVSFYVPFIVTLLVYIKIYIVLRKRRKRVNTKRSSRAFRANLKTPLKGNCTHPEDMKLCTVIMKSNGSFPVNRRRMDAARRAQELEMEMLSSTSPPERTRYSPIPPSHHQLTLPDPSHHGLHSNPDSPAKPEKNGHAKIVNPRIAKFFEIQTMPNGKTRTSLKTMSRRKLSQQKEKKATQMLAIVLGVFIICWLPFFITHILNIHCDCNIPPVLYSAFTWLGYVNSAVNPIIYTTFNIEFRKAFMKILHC

With Fc1ccc2c(C3CCN(CCCSc4nnc(-c5cccc6ccccc56)o4)CC3)noc2c1 [Compound 22, 2-(3-(4-(6-fluorobenzo[d]isoxazol-3-yl)piperidin-1-yl)propylthio)-5-(naphthalen-1-yl)-1,3,4-oxadiazole] the Ki [1] was 4.6 ± 0.8 nM, the LD50 (mice) was greater than 2000 mg/kg and the Ki (dopamine D2 receptor) was 23 ± 2.6 nM. For the same compound, the AUC0-inf ([2]; i.v. 5 mg/kg, plasma, n = 6) was 6239.0 ng·h/mL, the t1/2 ([2]; i.v. 5 mg/kg, plasma, n = 6) was 9.3 h and the “F (bioavailability)” value ([2]; oral 20 mg/kg vs i.v. 5 mg/kg) was 54.5%. The AUC0-inf ([2]; oral 20 mg/kg, plasma, n = 6) was 13602.7 ng·h/mL, the Cmax ([2]; oral 20 mg/kg, plasma, n = 6) was 723.6 ng/mL and the Tmax ([2]; oral 20 mg/kg, plasma, n = 6) was 5 h. For the same compound, the t1/2 ([2]; oral 20 mg/kg, plasma, n = 6) was 8.6 h.
